Target: T1, Human HPK1, catalytic domain (Homo sapiens, UniProt Q92918)
T1 construct: purchased Cama (so in the source)
T1 sequence (Q92918 1-346): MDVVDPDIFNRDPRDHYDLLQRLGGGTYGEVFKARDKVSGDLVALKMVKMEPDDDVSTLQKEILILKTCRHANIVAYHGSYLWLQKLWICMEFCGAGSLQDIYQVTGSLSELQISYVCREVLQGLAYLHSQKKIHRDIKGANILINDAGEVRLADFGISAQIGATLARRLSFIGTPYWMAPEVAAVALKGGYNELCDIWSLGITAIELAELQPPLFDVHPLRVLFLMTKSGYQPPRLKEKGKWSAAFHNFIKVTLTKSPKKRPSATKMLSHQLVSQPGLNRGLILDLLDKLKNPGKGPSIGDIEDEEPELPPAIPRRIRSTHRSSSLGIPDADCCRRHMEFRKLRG
Assay: HPK1-SLP76 TR-FRET assay
Type: biochemical
Conditions: HPK1 kinase domain 0.075 nM; full length SLP-76 10 nM; ATP 10 μM; 30 min preincubation; 60 min reaction; room temperature

IC50	SMILES
0.063 nM	Cc1c(-c2cc3nc(Nc4cc5n(n4)CCN(C(C)C)C(=O)C5)ncc3c(N)c2F)cnc2c1NCCO2 [Example 2-20, 2-{[5-amino-6-fluoro-7-(8-methyl-2,3-dihydro-1H-pyrido[2,3-b][1,4]oxazin-7-yl)quinazolin-2-yl]amino}-6-(propan-2-yl)-7,8-dihydro-4H-pyrazolo[1,5-d][1,4]diazepin-5(6H)-one]
0.076 nM	CCn1cc(Nc2ncc3c(N)c(F)c(-c4cnc5c(c4C)NCCO5)cc3n2)cn1 [Example 2-22, N~2~-(1-ethyl-1H-pyrazol-4-yl)-6-fluoro-7-(8-methyl-2,3-dihydro-1H-pyrido[2,3-b][1,4]oxazin-7-yl)quinazoline-2,5-diamine]
0.19 nM	Cc1c(-c2cc3nc(Nc4cnn(C5CCC5)c4)ncc3c(N)c2F)cnc2c1NCCO2 [Example 2-23, N~2~-(1-cyclobutyl-1H-pyrazol-4-yl)-6-fluoro-7-(8-methyl-2,3-dihydro-1H-pyrido[2,3-b][1,4]oxazin-7-yl)quinazoline-2,5-diamine]
1.1 nM	Cc1c(-c2cc3nc(Nc4cnn(CC(C)(C)O)c4)ncc3c(N)c2F)cnc2c1NCCO2 [Example 2-24, 1-(4-{[5-amino-6-fluoro-7-(8-methyl-2,3-dihydro-1H-pyrido[2,3-b][1,4]oxazin-7-yl)quinazolin-2-yl]amino}-1H-pyrazol-1-yl)-2-methylpropan-2-ol]
0.49 nM	Cc1c(-c2cc3nc(Nc4cnn(C5CC5)c4Cl)ncc3c(N)c2F)cnc2c1NCCO2 [Example 2-25, N~2~-(5-chloro-1-cyclopropyl-1H-pyrazol-4-yl)-6-fluoro-7-(8-methyl-2,3-dihydro-1H-pyrido[2,3-b][1,4]oxazin-7-yl)quinazoline-2,5-diamine]
0.38 nM	Cc1c(-c2cc3nc(Nc4cnn(C5(C)CC5)c4Cl)ncc3c(N)c2F)cnc2c1NCCO2 [Example 2-26, N~2~-[5-chloro-1-(1-methylcyclopropyl)-1H-pyrazol-4-yl]-6-fluoro-7-(8-methyl-2,3-dihydro-1H-pyrido[2,3-b][1,4]oxazin-7-yl)quinazoline-2,5-diamine]
1 nM	CCn1cc(Nc2ncc3c(N)c(F)c(-c4cnc5c(c4C)NCCO5)cc3n2)c(C)n1 [Example 2-27, N~2~-(1-ethyl-3-methyl-1H-pyrazol-4-yl)-6-fluoro-7-(8-methyl-2,3-dihydro-1H-pyrido[2,3-b][1,4]oxazin-7-yl)quinazoline-2,5-diamine]
0.094 nM	CNC(=O)C12CC(n3cc(Nc4ncc5c(N)c(F)c(-c6cnc7c(c6C)NCCO7)cc5n4)cn3)(C1)C2 [Example 2-28, 3-(4-{[5-amino-6-fluoro-7-(8-methyl-2,3-dihydro-1H-pyrido[2,3-b][1,4]oxazin-7-yl)quinazolin-2-yl]amino}-1H-pyrazol-1-yl)-N-methylbicyclo[1.1.1]pentane-1-carboxamide]
0.1 nM	Cc1c(-c2cc3nc(Nc4cnn(C(F)F)c4C)ncc3c(N)c2F)cnc2c1NCCO2 [Example 2-29, N~2~-[1-(difluoromethyl)-5-methyl-1H-pyrazol-4-yl]-6-fluoro-7-(8-methyl-2,3-dihydro-1H-pyrido[2,3-b][1,4]oxazin-7-yl)quinazoline-2,5-diamine]
0.051 nM	Cc1c(-c2cc3nc(Nc4cnn(C)c4C)ncc3c(N)c2F)cnc2c1NCCO2 [Example 2-30, N~2~-(1,5-dimethyl-1H-pyrazol-4-yl)-6-fluoro-7-(8-methyl-2,3-dihydro-1H-pyrido[2,3-b][1,4]oxazin-7-yl)quinazoline-2,5-diamine]
0.2 nM	Cc1nn(CC(F)F)cc1Nc1ncc2c(N)c(F)c(-c3cnc4c(c3C)NCCO4)cc2n1 [Example 2-31, N~2~-[1-(2,2-difluoroethyl)-3-methyl-1H-pyrazol-4-yl]-6-fluoro-7-(8-methyl-2,3-dihydro-1H-pyrido[2,3-b][1,4]oxazin-7-yl)quinazoline-2,5-diamine]
0.054 nM	Cc1c(-c2cc3nc(Nc4cnn(CC(F)F)c4)ncc3c(N)c2F)cnc2c1NCCO2 [Example 2-32, N~2~-[1-(2,2-difluoroethyl)-1H-pyrazol-4-yl]-6-fluoro-7-(8-methyl-2,3-dihydro-1H-pyrido[2,3-b][1,4]oxazin-7-yl)quinazoline-2,5-diamine]
3.5 nM	Cc1nn(C(C)C)cc1Nc1ncc2c(N)c(F)c(-c3cnc4c(c3C)NCCO4)cc2n1 [Example 2-33, 6-fluoro-7-(8-methyl-2,3-dihydro-1H-pyrido[2,3-b][1,4]oxazin-7-yl)-N~2~-[3-methyl-1-(propan-2-yl)-1H-pyrazol-4-yl]quinazoline-2,5-diamine]
0.058 nM	Cc1nn(C)cc1Nc1ncc2c(N)c(F)c(-c3cnc4c(c3C)NCCO4)cc2n1 [Example 2-34, N~2~-(1,3-dimethyl-1H-pyrazol-4-yl)-6-fluoro-7-(8-methyl-2,3-dihydro-1H-pyrido[2,3-b][1,4]oxazin-7-yl)quinazoline-2,5-diamine]
0.051 nM	Cc1c(-c2cc3nc(Nc4cnn5c4CCC5)ncc3c(N)c2F)cnc2c1NCCO2 [Example 2-35, N~2~-(5,6-dihydro-4H-pyrrolo[1,2-b]pyrazol-3-yl)-6-fluoro-7-(8-methyl-2,3-dihydro-1H-pyrido[2,3-b][1,4]oxazin-7-yl)quinazoline-2,5-diamine]
0.28 nM	Cc1nsc(Nc2ncc3c(N)c(F)c(-c4cnc5c(c4C)NCCO5)cc3n2)c1Cl [Example 2-36, N~2~-(4-chloro-3-methyl-1,2-thiazol-5-yl)-6-fluoro-7-(8-methyl-2,3-dihydro-1H-pyrido[2,3-b][1,4]oxazin-7-yl)quinazoline-2,5-diamine]
0.071 nM	Cc1cnsc1Nc1ncc2c(N)c(F)c(-c3cnc4c(c3C)NCCO4)cc2n1 [Example 2-37, 6-fluoro-7-(8-methyl-2,3-dihydro-1H-pyrido[2,3-b][1,4]oxazin-7-yl)-N~2~-(4-methyl-1,2-thiazol-5-yl)quinazoline-2,5-diamine]
0.57 nM	CCn1ncc(Nc2ncc3c(N)c(F)c(-c4cnc5c(c4C)NCCO5)cc3n2)c1F [Example 2-38, N~2~-(1-ethyl-5-fluoro-1H-pyrazol-4-yl)-6-fluoro-7-(8-methyl-2,3-dihydro-1H-pyrido[2,3-b][1,4]oxazin-7-yl)quinazoline-2,5-diamine]
0.051 nM	Cc1c(-c2cc3nc(Nc4cnn(C5COC5)c4)ncc3c(N)c2F)cnc2c1NCCO2 [Example 2-39, 6-fluoro-7-(8-methyl-2,3-dihydro-1H-pyrido[2,3-b][1,4]oxazin-7-yl)-N~2~-[1-(oxetan-3-yl)-1H-pyrazol-4-yl]quinazoline-2,5-diamine]
0.27 nM	CNC(=O)Cn1cc(Nc2ncc3c(N)c(F)c(-c4cnc5c(c4C)NCCO5)cc3n2)c(C)n1 [Example 2-40, 2-(4-{[5-amino-6-fluoro-7-(8-methyl-2,3-dihydro-1H-pyrido[2,3-b][1,4]oxazin-7-yl)quinazolin-2-yl]amino}-3-methyl-1H-pyrazol-1-yl)-N-methylacetamide]
0.84 nM	CNC(=O)C(C)(C)n1cc(Nc2ncc3c(N)c(F)c(-c4cnc5c(c4C)NCCO5)cc3n2)cn1 [Example 2-41, 2-(4-{[5-amino-6-fluoro-7-(8-methyl-2,3-dihydro-1H-pyrido[2,3-b][1,4]oxazin-7-yl)quinazolin-2-yl]amino}-1H-pyrazol-1-yl)-N,2-dimethylpropanamide]
0.13 nM	Cc1c(-c2cc3nc(Nc4cnn(CS(C)(=O)=O)c4)ncc3c(N)c2F)cnc2c1NCCO2 [Example 2-42, 6-fluoro-7-(8-methyl-2,3-dihydro-1H-pyrido[2,3-b][1,4]oxazin-7-yl)-N2-(1-((methylsulfonyl)methyl)-1H-pyrazol-4-y)quinazoline-2,5-diamine]
0.14 nM	Cc1c(-c2c(F)c(N)c3cnc(Nc4cnn(C5(C)CC5)c4)nc3c2Cl)cnc2c1NCCO2 [Example 2-43, (+ and −)-8-chloro-6-fluoro-N~2~-[1-(1-methylcyclopropyl)-1H-pyrazol-4-yl]-7-(8-methyl-2,3-dihydro-1H-pyrido[2,3-b][1,4]oxazin-7-yl)quinazoline-2,5-diamine]
0.045 nM	Cc1c(-c2cc3nc(Nc4cnn(C5CCN(C)CC5)c4)ncc3c(N)c2F)cnc2c1NCCO2 [Example 2-44, 6-fluoro-7-(8-methyl-2,3-dihydro-1H-pyrido[2,3-b][1,4]oxazin-7-yl)-N~2~-[1-(1-methylpiperidin-4-yl)-1H-pyrazol-4-yl]quinazoline-2,5-diamine]
0.18 nM	Cc1c(-c2cc3nc(Nc4cnn(C5CC5)c4C)ncc3c(N)c2F)cnc2c1NCCO2 [Example 2-45, N~2~-(1-cyclopropyl-5-methyl-1H-pyrazol-4-yl)-6-fluoro-7-(8-methyl-2,3-dihydro-1H-pyrido[2,3-b][1,4]oxazin-7-yl)quinazoline-2,5-diamine]
0.051 nM	Cc1c(-c2cc3nc(Nc4cnn(C56CC(C(C)(C)O)(C5)C6)c4)ncc3c(N)c2F)cnc2c1NCCO2 [Example 2-46, 2-[3-(4-{[5-amino-6-fluoro-7-(8-methyl-2,3-dihydro-1H-pyrido[2,3-b][1,4]oxazin-7-yl)quinazolin-2-yl]amino}-1H-pyrazol-1-yl)bicyclo[1.1.1]pentan-1-yl]propan-2-ol]
0.177 nM	Cc1c(-c2cc3nc(Nc4cnn([C@H]5CCN(C)C5)c4)ncc3c(N)c2F)cnc2c1NCCO2 [Example 2-47, (S)-6-fluoro-7-(8-methyl-2,3-dihydro-1H-pyrido[2,3-b][1,4]oxazin-7-yl)-N2-(1-(1-methylpyrrolidin-3-yl)-1H-pyrazol-4-yl)quinazoline-2,5-diamine]
0.166 nM	Cc1c(-c2cc3nc(Nc4cnn([C@@H]5CCN(C)C5)c4)ncc3c(N)c2F)cnc2c1NCCO2 [Example 2-48, (R)-6-fluoro-7-(8-methyl-2,3-dihydro-1H-pyrido[2,3-b][1,4]oxazin-7-yl)-N2-(1-(1-methylpyrrolidin-3-yl)-1H-pyrazol-4-yl)quinazoline-2,5-diamine]

Reference: patent US20230406864A1, “7-AZOLE SUBSTITUTED 2-AMINOQUINAZOLINE INHIBITORS OF HPK1” (MERCK SHARP & DOHME LLC, priority 2020, published 2023)
